PMC3880013, “Toward an Understanding of Agonist Binding to Human Orexin-1 and Orexin-2 Receptors with G-Protein-Coupled Receptor Modeling and Site-Directed Mutagenesis” (Biochemistry, 2013)
Like-named read-outs stand apart in the source and are kept apart here. Marks after values point to notes of the source that are not given here. Where no end group is shown, it is not given here.

What was measured:
[1] = tested on: hOX1 Y215A; details: hOX1 Y215A (5.38) relative to wild type, [Ca2+]i response, ref 37 Malherbe et al., cited from earlier work
Excerpt: (§1) Other mutations had no major effect on efficacy.

[2] = tested on: hOX1 Y311A; details: cited from earlier work
Excerpt: as §1

[3] = tested on: hOX1 D203A; details: hOX1 D203A (45.51) relative to wild type, [Ca2+]i response, ref 37 Malherbe et al., cited from earlier work
Excerpt: as §1

[4] = tested on: hOX1 W206A; details: cited from earlier work; for ratio EC50(mut)/EC50(WT): hOX1 W206A (45.54) relative to wild type, [Ca2+]i response, ref 37 Malherbe et al.
Excerpt: as §1

[5] = tested on: hOX1 Y224A; details: hOX1 Y224A (5.47) relative to wild type, [Ca2+]i response, ref 37 Malherbe et al., cited from earlier work
Excerpt: as §1

[6] = tested on: hOX2 Q134A; assay: Calcium flux assay, CHO-K1 cells stably expressing Orexin receptor mutant; format: cell-based, human; details: hOX2 Q134A (3.32) relative to wild type, CHO-K1, Fluo-4AM, this work
Protocol: (§2) A combination of overlap and mismatch polymerase chain reaction (PCR) was used to introduce mutations into the corresponding Orexin-1 and Orexin-2 cDNAs as described by us previously.[62] Each mutation was made via the generation of two overlapping PCR fragments with PfuUltra II Fusion HS DNA Polymerase (Strategene). The two products were extracted, and a second round of PCR was performed via combination of both fragments with 5′ and 3′ gene specific primers (containing BamHI and NotI restriction sites, respectively). The resulting gel-purified products were then cloned into expression vector pFB-Neo for subsequent generation of stable cell lines. Constructs were confirmed via sequencing. Each verified cDNA was subsequently used to generate single, stably expressing clones in the CHO-K1 cell line.
(§3) Standard calcium flux assays were used to assess the functionality of each OX receptor mutant. Each CHO-K1 Orexin mutant was seeded into tissue culture-treated, 384-well, black clear-bottom plates (CellBind Corning 7086), at a density of 7500 cells/well in culture medium and maintained in an incubator (5% CO2 at 37 °C) overnight. The cell medium was removed, and the cells were incubated in 20 μL of assay buffer (4 μM Fluo-4AM in HBSS with 0.1% BSA) for 90 min at 37 °C. After incubation, the dye was removed and 45 μL of fresh buffer, without dye, was applied. Antagonists (5 μL) were applied, and after incubation for an additional 20 min at 37 °C, 20 μL of receptor specific agonists was applied and the calcium flux monitored using a Flex Station (Molecular Devices) over a period of 1 min. In all cases, the EC80 specific for the individual mutant as determined in previous experiments was reported.

[7] = tested on: hOX2 Q187A; assay: as above; format: cell-based, human; details: hOX2 Q187A (4.60) relative to wild type, CHO-K1, Fluo-4AM, this work
Protocol: as §2, §3

[8] = tested on: hOX1 Q179A; assay: as above; format: cell-based, human; details: hOX1 Q179A (4.60) vs wild type, CHO-K1, Fluo-4AM, this work
Protocol: as §2, §3

[9] = tested on: hOX1 Y311F; assay: as above; format: cell-based, human; details: hOX1 Y311F (6.48) relative to wild type, CHO-K1, Fluo-4AM, this work
Protocol: as §2, §3

[10] = tested on: hOX2 F227W; assay: as above; format: cell-based, human; details: hOX2 F227W (5.42) relative to wild type, CHO-K1, Fluo-4AM, this work
Protocol: as §2, §3

[11] = tested on: hOX2 D211A; set-up: method as in earlier work; details: hOX2 D211A (45.51) relative to wild type, [Ca2+]i response, ref 37 Malherbe et al., cited from earlier work
[12] = tested on: hOX2 V353A; details: hOX2 V353A (7.42) relative to wild type; [Ca2+]i response; ref 37 Malherbe et al.; cited from earlier work
Excerpt: (§4) Table 1 Comparison of the Effects of Different Mutations in hOX1 and hOX2 on the Binding Potencies of Orexin-A and Orexin-B ^a | column: hOX2 / ratio ^b of Orexin-A

[13] = tested on: hOX2 S139A; details: hOX2 S139A (3.37) relative to wild type; [Ca2+]i response; ref 37 Malherbe et al.; cited from earlier work
Excerpt: as §4

[14] = tested on: hOX2 V138A; details: hOX2 V138A (3.36) relative to wild type; [Ca2+]i response; ref 37 Malherbe et al.; cited from earlier work
Excerpt: as §4

[15] = tested on: hOX2 Y317F; details: hOX2 Y317F (6.48) relative to wild type; [Ca2+]i response; ref 37 Malherbe et al.; cited from earlier work
Excerpt: as §4

[16] = tested on: hOX1 F219A; details: hOX1 F219A (5.42) relative to wild type, [Ca2+]i response, ref 37 Malherbe et al., cited from earlier work
Excerpt: Other mutations had no major effect on efficacy. || We also explored the role of the conserved F^5.42. […] In the case of OX1, F^5.42 interacts with H26 of OxA that, based on the SDM experiments, has an only moderate impact on potency (see Figure 6A). This is in contrast to OX2 in which F^5.42 interacts with key residue I30 (see Figure 6B). Mutation of I30 of OxA to alanine complet ...

For “Orexin-A (QPLPDCCRQKTCSCRLYELLHGAGNHAAGILTL; ends and bridges not checked; cysteine pairing not given here; UniProt O43612 34-66, looked up) [hypothalamic neuropeptide, 33 amino acids, two intramolecular disulfide bonds C6-C12 and C7-C14; natural OX1/OX2 agonist]”, the “ratio EC50(mut)/EC50(WT)” value [1] is given as 407.8 ^c fold, the “ratio EC50(mut)/EC50(WT)” value ([1]; listed as OxA) is given as 407.8 fold and the “ratio EC50(mut)/EC50(WT)” value ([2]; hOX1 Y311A (6.48) relative to wild type, [Ca2+]i response, ref 37 Malherbe et al.) is given as 163.9 fold. The “decrease in the maximal efficacy (Emax)” value ([2]; hOX1 Y311A compared with WT) was 53.4%, the “ratio EC50(mut)/EC50(WT)” value [3] was 408.2 ^c fold and the “ratio EC50(mut)/EC50(WT)” value ([3]; listed as OxA) was 408.2 fold. For the same substance, the “ratio EC50(mut)/EC50(WT)” value [4] was 417.8 ^c fold, the “ratio EC50(mut)/EC50(WT)” value ([4]; listed as OxA) was 417.8 fold and the “decrease in the maximal efficacy (Emax)” value ([4]; hOX1 W206A compared with WT) was 45.0%. For the same substance, the “ratio EC50(mut)/EC50(WT)” value [5] was 84.4 ^c fold, the “ratio EC50(mut)/EC50(WT)” value ([5]; listed as OxA) was 84.4 fold and the “ratio EC50(mut)/EC50(WT)” value [6] was 15.1 fold. The “ratio EC50(mut)/EC50(WT)” value [7] was 1.3 ^d fold, the “fold improvement in potency relative to wild type” value [8] was 17.8 fold improvement and the “ratio EC50(mut)/EC50(WT)” value [9] was 1.6 ^d fold. For the same substance, the “ratio EC50(mut)/EC50(WT)” value [10] was 84.2 ^d fold, the “ratio EC50(mut)/EC50(WT)” value [11] was 416.1 ^c fold and the “ratio EC50(mut)/EC50(WT)” value ([11]; listed as OxA) was 416.1 fold. For the same substance, the “ratio EC50(mut)/EC50(WT)” value [12] was 1.9 ^c fold, the “ratio EC50(mut)/EC50(WT)” value [13] was 2.5 ^c fold and the “ratio EC50(mut)/EC50(WT)” value [14] was 4.4 ^c fold. The “ratio EC50(mut)/EC50(WT)” value [15] was 1.3 ^c fold, the “ratio EC50(mut)/EC50(WT)” value [16] was 139.6 ^c fold and the “ratio EC50(mut)/EC50(WT)” value ([16]; listed as OxA) was 139.6 fold.
